Experiment: pH of the solution
Type: physicochemical

Compound	pH of strong basic solutions used as high pH controls
[K+].[OH-] [potassium hydroxide]	14
[Na+].[OH-] [sodium hydroxide]	14

From patent US20140087003A1, “METHOD FOR TREATING VENOMOUS BITES AND STINGS” (priority 2012, published 2014)
